The nature of series [1]: Stability study: storage in climatic chambers, solid form checked by XRPD and DSC. It is filed as physicochemical. Conditions: for solid form stability after storage (XRPD) / solid form stability after storage (XRPD, DSC): 40° C. and 80% relative humidity; for solid form stability after storage (XRPD): 6 months. Here is the method: The XRPD analysis was performed using a Siemens model D-5000 X-ray powder diffractometer equipped with a copper anode. The radiation used is CuKα with a wavelength of 1.541838 Å. Scanning parameters: 4-50 degrees 2θ, continuous scan, ratio: 1.2 degrees/minute.
The differential scanning calorimetry (DSC) analysis was performed in a Mettler Toledo 822e apparatus with STARe SW15.00 software. Parameters: range of heating from 25 to 300° C. with a ramp of 20° C./min and a N2 flow of 50 mL/min. The measurement was taken with a closed perforated capsule.
This is proven in the stability results of the product in amorphous form obtained according to assays 1.5 (lyophilization in acetonitrile) and 1.6 (lyophilization in water) indicated in Table 1. To determine said stability, the product was stored in climatic chambers under two different conditions: a) temperature of 40° C. and 80% relative humidity and b) temperature of 25° C. and 60% relative humidity.

The conditions of series [2]: lyophilized alone, without excipients; cited from earlier work.
For series [3] the following is noted: free base, cited from earlier work.

SMILES strings stand for the structures. Where two headings read alike, the source gives them in different places.

In the case of `COC(=O)CC[C@@H]1N=C(c2ccccn2)c2cc(Br)ccc2-n2c(C)cnc21.O=S(=O)(O)c1ccccc1` [Assay 1.5, remimazolam besylate], the “solid form stability after storage (XRPD)” value in series [1] is “still maintains the initial characteristics in terms of the amorphous form”. In addition, the “solid form stability after storage (XRPD, DSC)” value in series [1] (15 days) and in series [1] (30 days) was “still maintains the initial characteristics in terms of the amorphous form” throughout.
In the case of `COC(=O)CC[C@@H]1N=C(c2ccccn2)c2cc(Br)ccc2-n2c(C)cnc21.O=S(=O)(O)c1ccccc1` [Assay 1.6, remimazolam besylate], the “solid form stability after storage (XRPD)” value in series [1] was “still maintains the initial characteristics in terms of the amorphous form”. In series [1] (15 days), the “solid form stability after storage (XRPD, DSC)” value is recorded as “still maintains the initial characteristics in terms of the amorphous form”.
Take `COC(=O)CC[C@@H]1N=C(c2ccccn2)c2cc(Br)ccc2-n2c(C)cnc21.O=S(=O)(O)c1ccccc1` [Comparative Example 3, remimazolam besylate]: in series [1] (4° C., one month), the “solid form after storage (XRPD)” value is on record as “crystalline form 2”. Moreover, the “solid form after storage (XRPD, DSC)” value in series [1] (40° C. and 80% RH, one week) was “crystalline form 2”.
With `COC(=O)CC[C@@H]1N=C(c2ccccn2)c2cc(Br)ccc2-n2c(C)cnc21.O=S(=O)(O)c1ccccc1` [remimazolam besylate], the stability after lyophilization entry in series [2] is “did not result in satisfactory stability”.
For the molecule `COC(=O)CC[C@@H]1N=C(c2ccccn2)c2cc(Br)ccc2-n2c(C)cnc21` [remimazolam, methyl 3-{(4S)-8-bromo-1-methyl-6-(pyridin-2-yl)-4H-imidazo[1,2-a][1,4]benzodiazepin-4-yl}propanoate], the storage stability entry in series [3] (40° C. and 75% relative humidity, open vial) is given as “behaves like a deliquescent solid”; in series [3] (60° C. and ambient humidity, closed vial), “behaves like a deliquescent solid”; in series [3] (stored at 5° C.), “stable”.

These data come from patent US12331053B2, “Method for obtaining amorphous remimazolam besylate” (MOEHS IBERICA, S.L., priority 2019, dated 2025).
